Assay [1] has as its system MtBAN. The assay is described as follows: Anthocyanidin reductase activity assay with recombinant MtBAN protein extract (HPLC of products). Type of assay: biochemical, Medicago truncatula. The conditions noted are these: for conversion of flavan-3-ol into its isomer on incubation with MtBAN: in the presence of NADPH; for reduction of anthocyanidin substrate to flavan-3-ol product(s) by MtBAN: MtBAN protein extract, NADPH, Tris-HCl pH 7.0, 30° C. for 30 min, HPLC.

The target of assay [2] is AtBAN (Arabidopsis thaliana, UniProt Q9SEV0). Type of assay: biochemical. To be noted: for conversion of flavan-3-ol into its isomer on incubation with AtBAN: in the presence of NADPH; for reduction of anthocyanidin substrate to flavan-3-ol product by AtBAN: AtBAN protein extract (4 month old frozen), NADPH as coenzyme, HPLC.
Sequence of AtBAN (Q9SEV0 other isoform, or with tags, fused parts or gaps K55Q/I146L/V156I/E157D/T179K/K185E): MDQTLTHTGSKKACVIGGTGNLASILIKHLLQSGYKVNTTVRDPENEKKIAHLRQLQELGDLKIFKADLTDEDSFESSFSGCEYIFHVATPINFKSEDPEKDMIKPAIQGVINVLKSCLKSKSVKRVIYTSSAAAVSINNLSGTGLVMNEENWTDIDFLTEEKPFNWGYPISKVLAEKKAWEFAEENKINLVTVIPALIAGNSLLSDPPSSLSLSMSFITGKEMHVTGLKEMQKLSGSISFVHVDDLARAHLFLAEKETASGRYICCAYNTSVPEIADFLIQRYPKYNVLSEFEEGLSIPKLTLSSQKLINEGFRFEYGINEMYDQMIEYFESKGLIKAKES
Assay [3] has as its system Anthocyanidin reductase. As to the kind of experiment: Anthocyanidin reductase assay with desalted crude enzyme from Lotus corniculatus leaves. To be noted: young leaves; 100 μM cyanidin, 1 mM NADPH, 30° C. for 30 min. Format: biochemical. The procedure: (§1) Lotus corniculatus, Desmodium uncinatum and Barley cv. Morex were grown in a green house. Young leaves from L. corniculatus, unexpanded leaves, and young pods as well as open flowers and flower buds from D. uncinatum, and young grains from Barley were collected. Testa of barley grains were excised and pooled together for enzyme extraction. Mature grape fruit stored at −80° C. was treated in pH 7 100 mM Tris.HCl buffer for 30 seconds for isolated the skin for enzyme extraction.
(§2) A fresh one-gram leaf sample of L. corniculatus, one-gram testa from barley, and 9 grams of grape fruit skin, as well as two grams of flowers, 3 grams of young pods and 3 grams of young unexpanded leaves from Desmodium uncinatum were ground into homogenate fine powder in liquid nitrogen. The follow buffer systems were used for enzyme extraction. Extraction buffer 1: pH7 100 mM Tris.HCl, 10% glycerol and 2 mM 1,4-dithiothreitol; Extraction buffer 2: pH8 50 mM phosphate buffer, 10% glycerol, 1.5% polyethyleneglycerol 4000 (PEG-4000), 2 mM pH 8.0 Na-DETA, 25 mM sodium ascorbate, 20 mM β-mecaptoenthanol, and 5 mM 1,4-dithiothreitol; Extraction buffer 3: pH8 100 mM Tris.HCl, 10% glycerol 1.5% polyethyleneglycerol 4000 (PEG-4000), 2 mM pH 8.0 Na-DETA, 25 mM sodium ascorbate, 80 mM β-mecaptoenthanol, and 5 mM 1,4-dithiothreitol. […]

In assay [4] the test system is Anthocyanidin reductase. The assay is described as follows: Anthocyanidin reductase assay with desalted crude enzyme from grape fruit skin. Format: biochemical, Vitis vinifer. The conditions noted are these: 100 μM cyanidin, 1 mM NADPH, 30° C. for 30 min. Here is the method:
as §1, §2

The subject of assay [5] is Anthocyanidin reductase. As to the kind of experiment: Anthocyanidin reductase assay with desalted crude enzyme from barley testa tissue. Format: biochemical, Hordeum vulgera (barley) cv. morex. To be noted: 100 μM cyanidin, 1 mM NADPH, 30° C. for 30 min. The procedure: as §1, §2
Assay [6] has as its system Anthocyanidin reductase (ANR). As to the kind of experiment: Anthocyanidin reductase assay with desalted crude enzyme from Desmodium uncinatum tissues. The conditions noted are these: 100 μM cyanidin, 1 mM NADPH. Format: biochemical. Here is the method:
as §1
A fresh one-gram leaf sample of L. corniculatus, one-gram testa from barley, and 9 grams of grape fruit skin, as well as two grams of flowers, 3 grams of young pods and 3 grams of young unexpanded leaves from Desmodium uncinatum were ground into homogenate fine powder in liquid nitrogen. The follow buffer systems were used for enzyme extraction. Extraction buffer 1: pH7 100 mM Tris.HCl, 10% glycerol and 2 mM 1,4-dithiothreitol; Extraction buffer 2: pH8 50 mM phosphate buffer, 10% glycerol, 1.5% polyethyleneglycerol 4000 (PEG-4000), 2 mM pH 8.0 Na-DETA, 25 mM sodium ascorbate, 20 mM β-mecaptoenthanol, and 5 mM 1,4-dithiothreitol; Extraction buffer 3: pH8 100 mM Tris.HCl, 10% glycerol 1.5% polyethyleneglycerol 4000 (PEG-4000), 2 mM pH 8.0 Na-DETA, 25 mM sodium ascorbate, 80 mM β-mecaptoenthanol, and 5 mM 1,4-dithiothreitol.
The homogenate powder of lotus leaf and barley testa tissue was suspended in 5 ml extraction buffer 1, in which 1% proteinase inhibitor (Sigma) (V/V) was added. The homogenate powder of flowers and pods from Desmodium was suspended in extraction buffer 2, also in which 1% proteinase inhibitor (Sigma) (V/V) was added. The fine powder of Desmodium leaves or grape fruit skin was respectively suspended in 6 ml or 50 ml extraction buffer 3, in which 1% proteinase inhibitor (Sigma) (V/V) is added. The homogenates were vortexed vigorously and stayed on ice for 5-10 mm, squeezed through microcloth into 50 ml tubes and then 1/5 (W/V) equilibrated Dowex 1×2 was added into collected squeezed mixture solution. […]

Where [7] appears, read: reactions containing leucoanthocyanidins, repeated attempts.

As to `Oc1cc(O)c2c(c1)O[C@H](c1ccc(O)c(O)c1)[C@@H](O)C2` [(+)-catechin], in assay [1], the “conversion of flavan-3-ol into its isomer on incubation with MtBAN” value is reported as “does not produce”. Also, the “conversion of flavan-3-ol into its isomer on incubation with AtBAN” value in assay [2] was “does not produce”.

For `Oc1cc(O)c2c(c1)O[C@H](c1ccc(O)c(O)c1)[C@H](O)C2` [(−) epicatechin, (−)-epicatechin], in assay [1], the “conversion of flavan-3-ol into its isomer on incubation with MtBAN” value is “does not produce”. Further, the “conversion of flavan-3-ol into its isomer on incubation with AtBAN” value in assay [2] was “does not produce”.

As for `NC(=O)C1=CN([C@@H]2O[C@H](COP(=O)(O)OP(=O)(O)OC[C@H]3O[C@@H](n4cnc5c(N)ncnc54)[C@H](O)[C@@H]3O)[C@@H](O)[C@H]2O)C=CC1` [NADH], the “conversion with NADH relative to the level achieved with NADPH at the same concentration” value in assay [1] (NADH 2 mM final concentration substituted for NADPH) is recorded as “approximately 50%”.

For `NC(=O)C1=CN([C@@H]2O[C@H](COP(=O)(O)OP(=O)(O)OC[C@H]3O[C@@H](n4cnc5c(N)ncnc54)[C@H](OP(=O)(O)O)[C@@H]3O)[C@@H](O)[C@H]2O)C=CC1` [NADPH], the “co-factor dependence of conversion of anthocyanidins to flavan-3-ols” value in assay [1] (NADPH omitted from the enzyme assay mixtures) is on record as “NADPH-dependent”.

Turning to `Oc1cc(O)c2cc(O)c(-c3ccc(O)c(O)c3)[o+]c2c1.[Cl-]` [cyanidin, cyanidin chloride], the “reduction of anthocyanidin substrate to flavan-3-ol product(s) by MtBAN” value (shortened to “reduction of anthocyanidin substrate … by MtBAN”) in assay [1] is “reducing cyanidin to the corresponding flavan-3-ols, catechin and epicatechin”. In addition, the “reduction of anthocyanidin substrate to flavan-3-ol product by AtBAN” value (“reduction of anthocyanidin substrate … by AtBAN” for short) in assay [2] is reported as “reduction of cyanidin to epicatechin”. In addition, the “conversion of cyanidin by extract with NADPH” value in assay [3], in assay [4], in assay [5], in assay [6] (ANR from flowers), in assay [6] (ANR from leaves) and in assay [6] (ANR from young pods) was “producing epicatechin” throughout.

In the case of `Oc1cc(O)c2cc(O)c(-c3cc(O)c(O)c(O)c3)[o+]c2c1` [delphinidin, delphinidin chloride], in assay [1], the “reduction of anthocyanidin substrate … by MtBAN” value is “catalyzed the reduction of delphinidin into putative gallo-catechin and epi-gallocatechin”. Besides, in assay [2], the “reduction of anthocyanidin substrate … by AtBAN” value is “delphinidin into gallocatechin”.

For the compound `Oc1ccc(-c2[o+]c3cc(O)cc(O)c3cc2O)cc1` [pelargonidin, Pelargonidin chloride], in assay [1], the “reduction of anthocyanidin substrate … by MtBAN” value is on record as “tentatively identified as epi-afzelechin”. The “reduction of anthocyanidin substrate … by AtBAN” value in assay [2] was “pelargonidin into epi-alfzelechin”.

On to leucoanthocyanidins, for which the “LAR activity with recombinant MtBAN” value in assay [1] (setting [7]) is on record as “no LAR activity was observed”. For the same compound, the “LAR activity with recombinant AtBAN” value in assay [2] (setting [7]) was “no LAR activity was observed”.

For the origin of these results see US7622638B2, “Genetic manipulation of condensed tannins” (priority 2002, dated 2009).
